A short description of test [1]: HEp-2 cell cytotoxicity, dose response, cytotoxicity control for RSV inhibitor project, HTS (AID 2410). Conditions: human respiratory syncytial virus. It counts as functional.
Test [2] has as its target T1, Replicative DNA helicase DnaB (Mycobacterium tuberculosis, UniProt P9WMR3).
T1 sequence (P9WMR3 whole entry): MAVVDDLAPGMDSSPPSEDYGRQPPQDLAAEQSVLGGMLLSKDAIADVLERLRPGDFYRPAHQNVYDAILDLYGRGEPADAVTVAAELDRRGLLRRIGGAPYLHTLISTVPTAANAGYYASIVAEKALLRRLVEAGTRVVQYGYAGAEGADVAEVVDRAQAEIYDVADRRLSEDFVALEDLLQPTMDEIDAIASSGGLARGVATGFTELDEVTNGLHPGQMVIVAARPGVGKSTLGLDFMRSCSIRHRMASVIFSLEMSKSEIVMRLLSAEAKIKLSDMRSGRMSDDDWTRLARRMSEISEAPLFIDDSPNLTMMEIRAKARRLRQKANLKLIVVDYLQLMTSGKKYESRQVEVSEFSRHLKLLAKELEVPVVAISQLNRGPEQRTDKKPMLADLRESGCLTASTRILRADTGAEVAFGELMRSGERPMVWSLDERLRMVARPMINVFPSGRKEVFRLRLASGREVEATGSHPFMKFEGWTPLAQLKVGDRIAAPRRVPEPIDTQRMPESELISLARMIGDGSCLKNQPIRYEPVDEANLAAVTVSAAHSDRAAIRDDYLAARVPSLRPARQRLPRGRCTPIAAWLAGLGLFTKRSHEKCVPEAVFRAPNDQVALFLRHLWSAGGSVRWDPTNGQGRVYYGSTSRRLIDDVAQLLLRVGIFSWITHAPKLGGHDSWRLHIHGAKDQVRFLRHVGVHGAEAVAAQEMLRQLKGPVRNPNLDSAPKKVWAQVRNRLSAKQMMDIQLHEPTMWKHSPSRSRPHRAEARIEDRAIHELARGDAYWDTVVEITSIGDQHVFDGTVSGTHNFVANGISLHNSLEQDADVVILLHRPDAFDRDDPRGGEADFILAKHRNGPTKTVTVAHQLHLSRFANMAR
The test is described as follows: DnaB intein splicing inhibitors, dose response, biochemical, cell-free fluorescence (AID 449749). In kind it is functional.

The target of test [3] is Cytochrome P450 2D6 (Homo sapiens, UniProt P10635).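 Note: CYP2D6 member of a cytochrome P450 panel assay.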
For test [4], the target named is Cytochrome P450 2C9 (Homo sapiens, UniProt P11712).
For test [5], the target named is T2, Protein RecA (Mycobacterium tuberculosis, UniProt P9WHJ3).
T2 sequence (P9WHJ3 whole entry): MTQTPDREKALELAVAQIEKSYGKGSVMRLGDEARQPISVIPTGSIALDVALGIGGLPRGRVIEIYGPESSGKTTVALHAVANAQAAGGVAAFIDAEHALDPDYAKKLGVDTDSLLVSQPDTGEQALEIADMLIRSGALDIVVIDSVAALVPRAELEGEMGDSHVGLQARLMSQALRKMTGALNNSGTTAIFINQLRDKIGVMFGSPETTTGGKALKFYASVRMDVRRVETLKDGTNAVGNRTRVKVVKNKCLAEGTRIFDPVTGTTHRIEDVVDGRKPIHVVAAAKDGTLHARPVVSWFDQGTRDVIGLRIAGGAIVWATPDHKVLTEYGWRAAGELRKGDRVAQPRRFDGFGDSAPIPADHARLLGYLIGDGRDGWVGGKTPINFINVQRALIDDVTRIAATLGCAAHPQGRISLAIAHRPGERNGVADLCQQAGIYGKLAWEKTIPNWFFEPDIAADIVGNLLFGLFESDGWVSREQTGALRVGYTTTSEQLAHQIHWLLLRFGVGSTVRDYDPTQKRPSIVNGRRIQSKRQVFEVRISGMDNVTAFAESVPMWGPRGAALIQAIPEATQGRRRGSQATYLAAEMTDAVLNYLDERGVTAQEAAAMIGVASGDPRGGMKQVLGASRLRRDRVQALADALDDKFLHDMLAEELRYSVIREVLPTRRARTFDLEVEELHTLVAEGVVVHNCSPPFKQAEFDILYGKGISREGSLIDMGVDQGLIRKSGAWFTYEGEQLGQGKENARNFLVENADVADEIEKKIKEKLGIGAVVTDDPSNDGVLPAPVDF
The test can be described thus: Fluorescence Cell-Free Homogeneous Dose Retest to Identify Inhibitors of RecA-Intein Splicing Activity. [Related pubchem assays (depositor defined):AID2097, AID2223, AID489010, AID492950]. In kind it is functional.

The target of test [6] is T3, Streptokinase A (Streptococcus pyogenes serotype M1, UniProt P10520).
T3 sequence (P10520 whole entry): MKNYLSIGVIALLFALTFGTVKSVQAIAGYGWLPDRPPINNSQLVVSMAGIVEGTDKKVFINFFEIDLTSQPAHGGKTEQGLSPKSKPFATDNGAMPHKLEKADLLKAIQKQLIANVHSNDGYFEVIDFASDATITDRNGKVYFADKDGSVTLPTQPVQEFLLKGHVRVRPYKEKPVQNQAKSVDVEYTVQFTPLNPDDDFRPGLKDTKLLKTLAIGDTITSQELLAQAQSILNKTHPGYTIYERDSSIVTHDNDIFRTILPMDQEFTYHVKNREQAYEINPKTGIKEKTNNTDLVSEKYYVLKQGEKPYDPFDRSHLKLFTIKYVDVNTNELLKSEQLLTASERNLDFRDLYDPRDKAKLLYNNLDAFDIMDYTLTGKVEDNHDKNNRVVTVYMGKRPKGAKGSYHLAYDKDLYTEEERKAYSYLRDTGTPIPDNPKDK
The test can be described thus: S. pyogenes streptokinase expression inhibitors, potency, dose response, plasminogen activation absorbance, OD405 (AID 1914).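 Note: secreted streptokinase activity via plasminogen activation per viability signal from cell pellet.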 In kind it is functional, Streptococcus pyogenes M1 GAS.

Test [7] deals with Streptococcus sp. 'group A'. The test can be described thus: growth inhibition of control SK(-) GAS strain, dose response, counter-screen for streptokinase expression inhibitor project, luminescence, kanamycin, BacTiterGlo, confirmation (AID 1900). It counts as functional, organism-based. On the technique in general: The purpose of a counterscreen is to sort out artefacts and off-target activity.

Test [8] has as its system Streptococcus. The test is described as follows: Group A Streptococcus viability loss, dose response, counter-screen for streptokinase expression inhibitor project, luminescence, BacTiterGlo (AID 1915).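 Note: potency for reduction of bacterial viability or growth.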 It counts as functional, organism-based.
The subject of test [9] is H4. The test can be described thus: Luminescence Cell-Based Dose Response HTS to Identify Activators of 5'UTR Stem-Loop Driven Prion Protein mRNA Translation in H4 Neuroglioblastoma Cells. [Related pubchem assays: 1829 (Project Summary), 1814 (Primary HTS)]. It counts as functional. Conditions: Homo sapiens.
Test [10] in a line: Luminescence Cell-Based Dose Response HTS to Identify Activators of Luciferase Translation or Activity in H4 […] Cells. [Related pubchem assays: 1829 (Project Summary), 1814 (Primary HTS)]. In kind it is functional.
Test [11] addresses Cytochrome P450 2C19 (Homo sapiens, UniProt P33261). The test is described as follows: Cytochrome panel assay with activity outcomes. Panel member name: p450-cyp2c19 Compounds with AC50 equal or less than 10 uM are considered active. In kind it is functional. Conditions: read-out: AC50.
Test [12] has as its target Cytochrome P450 3A4 (Homo sapiens, UniProt P08684).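 Note: CYP3A4 tested as one member of a cytochrome P450 panel screen.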
A short description of test [13]: cytotoxicity toward NIH3T3 fibroblasts, dose response, counter-screen, cell-based, ATP luminescence, mouse fibroblasts (AID 2010).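 Note: cells exposed to compound for about 90 hours before reading.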 It counts as functional.
A short description of test [14]: inhibitors of intracellular T. cruzi replication, confirmation, NIH3T3 host cells, beta-gal luminescence (AID 2044).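 Note: intracellular parasites grown in NIH/3T3 mouse fibroblasts as host cells; luminescent beta-galactosidase reporter signal from transgenic T. cruzi replicating inside host cells; inhibitors lower the luminescence signal.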 It counts as functional, cell-based.

Results on 30 molecules are retold here after ChEMBL document CHEMBL1201862, “PubChem BioAssay data set” (2004).

The source made the active and inactive calls.

As a reminder, the CC50 is the concentration at which the toxic effect on the cells reaches its halfway point. By AC50 is commonly meant the concentration at which the activity in the assay is half-maximal. One may read the EC50 as the concentration that produces a half-maximal response.

Sequence of Cytochrome P450 2C9 (P11712 whole entry): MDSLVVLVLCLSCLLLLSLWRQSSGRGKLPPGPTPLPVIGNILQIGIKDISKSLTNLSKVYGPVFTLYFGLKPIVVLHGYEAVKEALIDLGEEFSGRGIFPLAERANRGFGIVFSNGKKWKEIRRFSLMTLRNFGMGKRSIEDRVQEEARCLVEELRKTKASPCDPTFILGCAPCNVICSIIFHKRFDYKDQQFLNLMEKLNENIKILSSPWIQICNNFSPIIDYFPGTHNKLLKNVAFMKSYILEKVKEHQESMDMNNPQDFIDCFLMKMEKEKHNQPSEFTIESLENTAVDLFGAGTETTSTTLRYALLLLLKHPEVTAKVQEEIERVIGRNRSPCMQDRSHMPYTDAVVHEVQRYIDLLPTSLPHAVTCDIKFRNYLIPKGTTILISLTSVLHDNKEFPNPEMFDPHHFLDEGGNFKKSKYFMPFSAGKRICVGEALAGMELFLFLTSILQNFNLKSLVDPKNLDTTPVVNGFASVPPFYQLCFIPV
Sequence of Cytochrome P450 2D6 (P10635 whole entry): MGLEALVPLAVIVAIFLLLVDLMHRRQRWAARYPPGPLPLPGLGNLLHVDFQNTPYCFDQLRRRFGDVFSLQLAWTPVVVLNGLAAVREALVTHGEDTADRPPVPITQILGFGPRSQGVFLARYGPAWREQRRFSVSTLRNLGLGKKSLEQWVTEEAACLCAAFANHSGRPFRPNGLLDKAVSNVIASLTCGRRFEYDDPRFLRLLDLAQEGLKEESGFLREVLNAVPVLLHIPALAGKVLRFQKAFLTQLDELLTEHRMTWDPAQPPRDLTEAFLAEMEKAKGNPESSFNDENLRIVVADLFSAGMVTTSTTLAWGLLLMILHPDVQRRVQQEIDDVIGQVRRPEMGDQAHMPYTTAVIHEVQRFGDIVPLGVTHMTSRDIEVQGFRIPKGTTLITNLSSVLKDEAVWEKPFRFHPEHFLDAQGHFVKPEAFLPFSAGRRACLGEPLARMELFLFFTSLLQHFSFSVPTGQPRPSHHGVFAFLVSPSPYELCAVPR
Sequence of Cytochrome P450 2C19 (P33261 whole entry): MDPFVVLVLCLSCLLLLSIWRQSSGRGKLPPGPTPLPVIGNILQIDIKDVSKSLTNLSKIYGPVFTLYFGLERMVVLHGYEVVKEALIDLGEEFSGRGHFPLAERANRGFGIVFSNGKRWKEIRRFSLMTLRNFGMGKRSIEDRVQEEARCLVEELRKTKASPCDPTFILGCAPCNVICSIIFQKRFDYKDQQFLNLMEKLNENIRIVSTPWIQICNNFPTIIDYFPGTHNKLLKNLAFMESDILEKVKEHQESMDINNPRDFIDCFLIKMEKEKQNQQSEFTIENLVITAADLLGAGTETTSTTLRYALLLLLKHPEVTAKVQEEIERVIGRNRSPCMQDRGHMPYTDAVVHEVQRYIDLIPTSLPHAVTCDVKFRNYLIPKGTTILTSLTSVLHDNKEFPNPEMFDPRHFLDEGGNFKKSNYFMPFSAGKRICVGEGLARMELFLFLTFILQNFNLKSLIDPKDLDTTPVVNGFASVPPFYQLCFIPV
Sequence of Cytochrome P450 3A4 (P08684 whole entry): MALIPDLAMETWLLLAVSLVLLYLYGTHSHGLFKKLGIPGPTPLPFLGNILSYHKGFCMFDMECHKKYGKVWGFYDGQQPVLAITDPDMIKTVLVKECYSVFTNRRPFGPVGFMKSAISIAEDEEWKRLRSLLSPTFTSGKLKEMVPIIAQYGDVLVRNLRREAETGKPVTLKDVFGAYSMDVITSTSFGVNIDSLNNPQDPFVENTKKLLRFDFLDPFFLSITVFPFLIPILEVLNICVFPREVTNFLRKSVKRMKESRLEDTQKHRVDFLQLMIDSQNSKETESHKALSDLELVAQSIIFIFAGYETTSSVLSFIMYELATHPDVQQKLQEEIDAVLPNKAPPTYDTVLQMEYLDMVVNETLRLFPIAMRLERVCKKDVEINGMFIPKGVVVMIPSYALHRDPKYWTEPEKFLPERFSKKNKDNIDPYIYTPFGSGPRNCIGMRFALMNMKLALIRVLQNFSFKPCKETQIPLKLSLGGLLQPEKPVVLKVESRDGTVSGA

Consider `CN1c2ccccc2C(C)(C)[C@]12C=Cc1cc(O)ccc1O2`, for which the CC50 in test [1] was 7.32 µM (active).
For the molecule `CC(=O)NCCn1c(SCC(=O)NCc2ccco2)nc2ccccc2c1=O`, the AC50 in [2] is 7.22 µM (active); in test [3], 0.0447 µM (inconclusive); in test [4], 25.1 µM (inconclusive). In addition, in test [5], the EC50 is 9.17 µM (active).
For `COc1ccc(C2CC(c3ccccc3)=NN2c2ccc(S(N)(=O)=O)cc2)cc1OC` (centres undefined), the CC50 in test [1] is 24.2 µM (active).
Consider `O=C(Nc1cccc(-c2nnc(-c3ccccc3)o2)c1)c1ccc(Br)o1`, for which the EC50 was > 150 µM (not active) in test [6], 9.53 µM (active) in [7] and 14.2 µM (active) in test [8].
Regarding `O=C(Nc1ccc(-c2nc3ccccc3s2)c(OC(=O)c2ccccc2)c1)c1ccccc1`, the 50% effective concentration (EC50) in [9] is on record as > 120 µM (not active).
`Oc1ccccc1-[n+]1c(-c2ccccc2)cc(-c2ccccc2)cc1-c1ccccc1.[O-][Cl+3]([O-])([O-])[O-]`: the CC50 in test [1] is 11.7 µM (active).
Regarding `CC(=O)N1N=C(c2ccc(C)cc2)OC1c1ccc(C(C)C)cc1` (centres undefined), the concentration giving a half-maximal response (EC50) in test [10] is > 120 µM (not active); in [9] it was 6.68 µM (active).
`COCCn1c(N)c(C(=O)NS(=O)(=O)c2ccc(C)cc2)c(=O)[nH]c1=O`: the EC50 in test [6], in test [7] and in test [8] was > 150 µM (not active) in each case.
As for `O=C(Nc1cc(Cl)cc(Cl)c1)Nc1cnccn1`, the EC50 was > 150 µM (not active) in test [6], 7.66 µM (active) in [7] and > 150 µM (not active) in [8].
Take `Cc1ccc(C2=C(Cl)C(=O)C(c3ccc(C)cc3)=C(Cl)C2=O)cc1`: the concentration at half-maximal activity (AC50) in test [11] and in test [3] was 3.98 µM (inconclusive) in each case.
Consider `O=C(c1cc(S(=O)(=O)N2CCOCC2)ccc1F)N(CCc1ccccc1)Cc1ccccc1`, for which the CC50 in test [1] was 29.8 µM (active).
On the same count and under the same terms, in the case of `CCC1=NN2C(=N)/C(=C/c3ccc(OS(=O)(=O)c4ccccc4)cc3)C(=O)N=C2S1` it was > 50 µM (active).
As to `Cc1ccccc1-c1nccc(Nc2ccc(F)cc2)n1`, the AC50 in test [3] is 20 µM (inconclusive).
`CN(C)c1ccc(-c2ccc3ncnc(NCc4ccccc4)c3c2)cc1`: in test [3], the AC50 was 12.6 µM (inconclusive).
As for `COc1cccc(/C=N/NC(=O)c2cc(-c3cccn3C)[nH]n2)c1`, in test [3], the concentration at half-maximal activity (AC50) is 0.00794 µM (inconclusive).
Take `Clc1ccccc1-c1nc(Nc2ccncc2)c2ccccc2n1`: the AC50 in test [3] is 39.8 µM (inconclusive); in [4] it was 1.58 µM (inconclusive).
In the case of `O=C(CSc1nnc(-c2ccccn2)n1Cc1ccco1)c1ccc(-c2ccccc2)cc1`, the CC50 in test [1] is 34.3 µM (active).
As to `COC(=O)CSc1nnc(-c2cnccn2)n1C`, the EC50 in [6], in test [7] and in [8] was > 150 µM (not active) each time.
Turning to `N#Cc1c(N2CCOCC2)nsc1-c1ccc(C(F)(F)F)cc1`, the values for the half-maximal effective concentration (EC50) in test [10] and in [9] were 10.9 µM (active) and 24.7 µM (active), respectively.
For `Cc1cc2oc(=O)cc(CN(C)Cc3ccccc3Cl)c2cc1C`, the results for the concentration giving a half-maximal response (EC50) in test [6], in test [7] and in test [8] were 14.4 µM (active), 20.8 µM (active) and > 150 µM (not active), respectively.
Take `O=C(NC(=S)Nc1ccc(Br)cn1)c1cncc(Br)c1`: the AC50 in test [11] was 35.5 µM (inconclusive); in [3] it was 0.631 µM (inconclusive); in test [4] it was 0.447 µM (inconclusive).
For the molecule `Cc1ccc(/N=c2/sc(C)c(C)n2C)cc1`, the EC50 in [10] is 13.9 µM (active); in [9], 108 µM (active).
For `O=C(Nc1cccc(F)c1)N1CC2(CCN(S(=O)(=O)c3ccccc3)CC2)C1`, the AC50 was 15.8 µM (inconclusive) in [11], 39.8 µM (inconclusive) in [3] and 20 µM (inconclusive) in [4].
For `O=C1NC(=Nc2ccccn2)SC1Cc1ccc(Cl)cc1` (centres undefined), in test [6], the EC50 was > 150 µM (not active).
In the case of `COc1ccccc1NS(=O)(=O)c1cccc(C(=O)OCC(=O)Nc2cc(C)on2)c1`, the results for the AC50 in test [3] and in test [4] were 31.6 µM (inconclusive) and 12.6 µM (inconclusive), respectively.
For the molecule `C[C@@H]1CC[C@@]2(OC1)O[C@H]1C[C@H]3[C@@H]4CC=C5C[C@@H](O)[C@H](O)C[C@]5(C)C4CC[C@]3(C)[C@H]1[C@@H]2C` (some centres undefined), the half-maximal effective concentration (EC50) was > 150 µM (not active) in test [6], 4.77 µM (active) in test [7] and 16.4 µM (active) in [8].
Take `Brc1ccc(-c2cn3c(n2)CCc2ccc4cccnc4c2-3)cc1`: the EC50 in test [6] was 23.8 µM (active); in test [7], 4.51 µM (active); in [8], > 150 µM (not active).
As for `COc1ccccc1-c1nc(NCCN2CCOCC2)c2ccccc2n1`, the AC50 in test [12] and in test [3] was 31.6 µM (inconclusive) each time.
As to `CC1=NN(C(=Nc2ccc(C(C)(C)C)cc2)Nc2nnc(C)s2)[C@H](c2ccc(C)cc2)S1`, the EC50 in test [6] is 13.9 µM (active); in test [7] it was 8.28 µM (active); in [13] it was > 60 µM (not active); in [8], > 150 µM (not active); in [14] it was 1.85 µM (active).
`Cc1ccc2nc(-c3ccc(NS(=O)(=O)c4ccc(F)c(F)c4)cc3)sc2c1`: the EC50 was 5.1 µM (active) in test [6], 2.65 µM (active) in test [7] and 5.92 µM (active) in test [8].
